According to patent publication US20230384333A1 (priority 2020, published 2023):
Entries after “also recorded” stand apart in the source; their conditions may differ. Where two headings read alike, the source gives them in different places.

Assays:
[1] = tested on: psychLight2; type: cell-based, human
Experimental: Compounds unlikely to bind to the sensor should produce minimal to no response in either agonist or antagonist mode. Therefore, a ligand score was calculated as: […]

[2] = tested on: C57BL/6J mice; assay: Head-twitch response (HTR) assay; type: in vivo, mouse; conditions: i.p., multiple doses
Experimental: The HTR assay was performed as described previously using both male and female C57BL/6J mice (2 male and 2 female=4 total per treatment). The mice were obtained from The Jackson Laboratory (Sacramento, C.A.) and were approximately 8-weeks old at the time of the experiments. Compounds were administered (5 mL/kg, i.p.) using 0.9% saline as the vehicle. After injection, animals were placed into an empty cage (8″×13″×5″) and HTRs were videotaped, scored later by two blinded observers, and the results were averaged (interpersonnel kappas, Pearson correlation coefficient>0.91). Locomotion was assessed using AnyMaze automated tracking software.

[3] = tested on: psychLight2; assay: PSYLI2 high-content imaging, agonist mode; type: cell-based, human
Experimental: (§1) High-Content Imaging Experiments. Glass bottom 96-well plates (P96-1.5H-N, Cellvis) were coated with 50 μg/mL of poly-D-lysine (Sigma, P6407-5MG) and 10 μg/mL laminin (Sigma, L2020) overnight in an incubator (37° C., 5% CO2). […] Immediately prior to an experiment, stock solutions of drugs in DMSO (10 mM) were first diluted 1:100 in imaging media distributed across an empty 96-well plate (treatment plate) in triplicates following a randomized plate map. […] Cells grown in a separate 96-well plate (assay plate) were gently washed (3×) with imaging media, and the wells were filled with an appropriate volume of imaging media for the respective experiment (vide infra).
(§2) For agonist mode, […] of imaging media was added to each well of the assay plate. Wells were then imaged on a Lecia DMi8 using Leica Application Suite X (V3.6.0.20104) at 40×(N.A.=0.6) with 5 regions of interest (ROI) taken per well using the default 5 ROI pattern for each well with no bias to location and no overlap of the ROIs (exposure=350 ms, LED power=80%). Next, 20 μL from the treatment plate was transferred to the assay plate for a total 1:1000 dilution of drug (10 μM drug, 0.1% DMSO). […] All final concentrations of drugs were 10 μM (0.1% DMSO) in agonist mode unless stated otherwise. After 5 min of incubation, the same sites were re-imaged using the same settings.
Once imaging was complete, the images were exported, put into a stack, and analyzed using ImageJ Fiji (ver. 1.51v) by using the rectangle function to draw an ROI around the cell membrane (one cell per image) on both the pre- and posttreatment images. ROI sizes within each plate were kept the same and saved to the ROI manager in ImageJ (ctrl+T). Images were then measured using the “multi measure” function in the ROI manager. Measurements were saved and exported. Analysis of the data was done by taking the average of each individual well's ROIs before and after drugs were added. Then the ΔF/F values for each well were calculated using the following equation: […]
as §1, with “Glass” for “High-Content Imaging Experiments. Glass”, “50 µg/mL” for “50 μg/mL”, “10 pg/mL of” for “10 μg/mL”, “were” for “were first”, “in triplicate” for “in triplicates”, “washed 3×” for “washed (3×)”
as §2, with “agonist mode experiments,” for “agonist mode,”, “media were” for “media was”, “20 pL” for “20 μL”, “plate containing” for “plate for”, “a” for “a total”, “(10 pM as the final concentration in” for “(10 μM drug,”
Once imaging was complete, the images were exported, and analyzed using self-written MATLAB script. Script will be deposit on to Github. In short, segmentation was performed on individual images and a mask highlighting the membrane of the HEK293T cells was generated. Pixel intensities were obtained from the mask-highlighted area and exported into Excel. The ΔF/F values for each well were calculated using the following equation: […]

[4] = target: psychLight1 (Homo sapiens, UniProt P28223, E264Q/I181A); assay: cell-based; type: cell-based
Experimental: (§3) HEK293T cells were grown in DMEM, supplemented with fetal bovine serum (FBS) and penicillin-streptomycin. Cells were trans-fected with Effectene according to the manufacturer's instructions. Prior to imaging, cells were washed with Hank's Balanced Salt Solution (HBSS) supplemented with 2 mM MgCl2 and 2 mM CaCl2). All images were collected in HBSS containing Mg^2+ and Ca^2+.
(§4) HEK293T cells were plated and transfected concurrently 24 h prior to each experiment using the QIAGEN Effectene Transfection
(§5) Dose-response experiments were performed using an Automate Perfusion System. Cells (HEK293T) were grown on 12 mm cover-slips and transfected with psychLight1. The coverslips were then placed into a coverslip holder and washed with 5 mL of HBSS containing 2 mM MgCl2 and 2 mM CaCl2). Cells were perfused first with 5 mL of 0.1% DMSO, then drugs in ascending concentrations from 1 pM to […] were added, with the concentration of DMSO being held constant at 0.10%. […] For the competition studies described in FIG. 19, HEK293T cells were prepared as described above; however, the cells were first exposed to 5 mL of 0.2% DMSO. […] Analysis was performed by taking 3 ROIs on the cell membrane using ImageJ and calculating the mean intensity for each ROI across the time-points. Finally, the DF/F was calculated using the average of the baseline (0.1 or 0.2% DMSO) and the average intensity between each dosage over the average of the baseline.

[5] = tested on: psychLight2; conditions: mouse, in vivo
Source text: Three animals were used for experiments measuring sensor activity in the prelimbic cortex.

[6] = tested on: psychLight1; assay: cell-based; type: cell-based, human; conditions: for EC50: read-out: EC50 (half maximal effective concentration)
Experimental: as §3, §4, §5

[7] = tested on: psychLight; type: cell-based, human
[8] = tested on: psychLight2 response to electrically evoked 5-HT release; design: species or system mouse
[9] = tested on: psychLight; assay: Schild regression analysis in PSYLI2 cells; type: cell-based, human
Experimental: During imaging, […] of imaging media were added to each well of the assay plate. Wells were then imaged on a Lecia DMi8 using Leica Application Suite X (V3.6.0.20104) at 40×(N.A.=0.6) with 5 regions of interest (ROI) taken per well using the default 5 ROI pattern for each well with no bias to location and no overlap of the ROIs (exposure=350 ms, LED power=80%). Next, […] from the treatment plate was transferred to the assay plate for a final 1:1000 dilution of drug. All final drug treatments contained 0.1% DMSO. After 5 min of incubation, the same sites were re-imaged using the same settings. The data analysis method was the same as in agonist and antagonist mode.

[10] = tested on: dLight; type: cell-based
[11] = HEK293T cells expressing psychLight
[12] = 10 μM compound, hit limit 1 SD from vehicle

Chain of psychLight1 (Homo sapiens, UniProt P28223, E264Q/I181A) (P28223 whole entry I181A/E264Q, looked up): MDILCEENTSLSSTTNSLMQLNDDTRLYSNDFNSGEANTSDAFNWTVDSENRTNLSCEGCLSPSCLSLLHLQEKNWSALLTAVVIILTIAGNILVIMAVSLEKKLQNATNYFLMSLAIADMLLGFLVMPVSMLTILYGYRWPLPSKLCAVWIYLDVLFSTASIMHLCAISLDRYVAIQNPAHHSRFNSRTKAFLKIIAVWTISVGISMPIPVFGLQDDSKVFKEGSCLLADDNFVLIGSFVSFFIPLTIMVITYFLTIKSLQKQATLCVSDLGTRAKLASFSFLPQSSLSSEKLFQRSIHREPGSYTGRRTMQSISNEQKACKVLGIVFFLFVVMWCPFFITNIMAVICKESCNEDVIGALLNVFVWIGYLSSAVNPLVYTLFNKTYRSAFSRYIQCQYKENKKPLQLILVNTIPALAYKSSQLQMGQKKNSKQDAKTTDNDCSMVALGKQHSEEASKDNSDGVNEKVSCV

## CN(C)CCc1c[nH]c2ccc(Br)cc12 [5-Br-DMT, 5-bromo-N,N-dimethyltryptamine]
[1]
  ligand score: negative ligand score
[2]
  head-twitch response (HTR): did not induce head-twitches at any dose; also recorded: failed to induce HTRs at any dose

## CN(C)CCc1c[nH]c2ccc(Cl)cc12 [5-Cl-DMT, 5-chloro-N,N-dimethyltryptamine]
[1]
  ligand score: positive ligand scores
[2]
  head-twitch response (HTR): produced robust HTRs

## CN(C)CCc1c[nH]c2ccc(F)cc12 [5-F-DMT, 5-flouo-N,N-dimethyltryptamine]
[1]
  ligand score: positive ligand scores
[2]
  head-twitch response (HTR): produced robust HTRs

## NCCc1c[nH]c2ccc(O)cc12 [5-HT, serotonin]
[3]
  PSYLI2 response (positive and negative controls): 44.8±0.8%
  fluorescence intensity change, high content imager with psychLight2: 38.2±2.4%
  ΔF/F PSYLI2 fluorescence, panel of tryptamines: 46.3%±1.4%
[4]
  fluorescence intensity change, confocal with psychLight1: 77.3±2.4%

## COc1ccc2[nH]cc(CCN(C)C)c2c1 [5-MeO, 5-methoxy-N,N-dimethyltrytamine]
[3]
  fluorescence intensity change, high content imager with psychLight2: 24.1±4.6%
[5]
  head-twitch response during fiber photometry: concomitant increase in HTR
  psychLight2 fluorescence in prelimbic cortex after injection: sharp increase in fluorescence
[4]
  Emax: 48.4%
[6]
  fluorescence intensity change, confocal with psychLight1: 48.4±3.1%
  EC50: 157 nM

## CN(C)CCc1c[nH]c2ccc(O)cc12 [BUFO, N,N-dimethylserotonin]
[3]
  ΔF/F PSYLI2 fluorescence, panel of tryptamines: 22.3%±2.8%

## CN(C)CCc1c[nH]c2ccccc12 [DMT, N,N-dimethyltrytamine]
[3]
  screen outcome in agonist mode: false negative
[4]; HEK-293T
  Emax: 12.4%
[6]
  EC50: 627 nM

## NCCCC(=O)O [GABA, y-aminobutyric acid]
[7]; [11]
  response of psychLight to neurotransmitters: do not respond

## O=C(c1ccc(F)cc1)C1CCN(CCn2c(=O)[nH]c3ccccc3c2=O)CC1 [KETSN, ketanserin]
[3]
  PSYLI2 response (positive and negative controls): −12.7±0.5%
  fluorescence intensity change, high content imager with psychLight2: −3.5±1.6%
[8]
  block of psychLight fluorescence to electrically evoked 5-HT transients: sufficient to block psychLight fluorescence
[8]; KETSN 10 μM, N=5 slices
  peak response to field stimulation of BNST slices: 0±0.36%
[4]
  block of 5-HT-induced activation of psychLight: able to block 5-HT-induced activation of psychLight
  effect on psychLight fluorescence: neutral antagonists; also recorded: minimal effect on psychLight1 fluorescence or slightly quenched the sensor
  fluorescence intensity change, confocal with psychLight1: −1.7±0.3%

## CCN(CC)C(=O)N[C@H]1C=C2c3cccc4[nH]cc(c34)C[C@H]2N(C)C1 [LIS, lisuride]
[9]
  Schild regression (pA2) outcome: potent psychLight competitive antagonists

## CCN(CC)C(=O)[C@@H]1C=C2c3cccc4[nH]cc(c34)C[C@H]2N(C)C1 [LSD, lysergic acid diethylamide]
[10]
  activation of dLight: both activated dLight to the same extent

## CNCCc1c[nH]c2ccc(O)cc12 [N-5-HT, N-methylserotonin]
[3]
  ΔF/F PSYLI2 fluorescence, panel of tryptamines: 24.6%±1.7%

## c1ccc(C2(N3CCCCC3)CCCCC2)cc1 [PCP, Phencyclidine]
[3]
  screen outcome in agonist mode: did not activate the sensor
[1]
  ligand score: ~0

## C[C@H](Cc1ccccc1)N(C)C [R-dimethamphetamine, (R)-dimethamphetamine]
[3]; [12]
  screen outcome in agonist mode: potential hallucinogenic hits

## CN1CCc2cccc3c2[C@H]1Cc1ccc(O)c(O)c1-3 [apomorphine, R-(−)-apomorphine]
[9]
  Schild regression (pA2) outcome: potent psychLight competitive antagonists

## CN1[C@@H]2CC[C@H]1C[C@@H](OC(c1ccccc1)c1ccccc1)C2 [benztropine]
[9]
  Schild regression (pA2) outcome: potent psychLight competitive antagonists

## NCCc1ccc(O)c(O)c1 [dopamine]
[7]
  response of psychLight to neurotransmitters: do not respond

## N[C@@H](CCC(=O)O)C(=O)O [glutamate, L-glutamic acid]
[7]; [11]
  response of psychLight to neurotransmitters: do not respond

## CN1C2CCCC1CC(NC(=O)c1nn(C)c3ccccc13)C2 (centres unmarked) [granisetron]
[8]
  block of psychLight fluorescence to electrically evoked 5-HT transients: sufficient to block psychLight fluorescence

## NC[C@H](O)c1ccc(O)c(O)c1 [norepinephrine]
[7]; [11]
  response of psychLight to neurotransmitters: do not respond

## COC(=O)[C@@H]1C[C@H](OC(C)=O)C(=O)[C@H]2[C@@]1(C)CC[C@H]1C(=O)O[C@H](c3ccoc3)C[C@]21C [salvinorin A]
[3]; [12]
  screen outcome in agonist mode: did not activate the sensor
[1]
  ligand score: ~0

## NCCc1c[nH]c2ccccc12 [tryptamine]
[3]
  ΔF/F PSYLI2 fluorescence, panel of tryptamines: robust response

## tetrodotoxin citrate
[8]
  block of psychLight fluorescence to electrically evoked 5-HT transients: sufficient to block psychLight fluorescence
